Experimental data from PubChem BioAssay (NCI).
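Briefly, cells in 96-well plates were exposed to five compound concentrations for 48 h, and endpoints were estimated by linear interpolation. TGI: total growth inhibition.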

Experiments:
Test in all cases: growth of human tumour cells (NCI), 48 h
SK-OV-3 ovarian = test system: SK-OV-3 ovarian
PC-3 prostate = test system: PC-3 prostate
UO-31 renal = test system: UO-31 renal
SNB-19 CNS = test system: SNB-19 CNS
CCRF-CEM leukemia = test system: CCRF-CEM leukemia
U251 CNS = test system: U251 CNS
ACHN renal = test system: ACHN renal
HOP-62 NSCLC = test system: HOP-62 NSCLC
TK-10 renal = test system: TK-10 renal
UACC-62 melanoma = test system: UACC-62 melanoma
RPMI-8226 leukemia = test system: RPMI-8226 leukemia
MCF7 breast = test system: MCF7 breast
HCT-15 colon = test system: HCT-15 colon
K-562 leukemia = test system: K-562 leukemia
A549 NSCLC = test system: A549 NSCLC
UACC-257 melanoma = test system: UACC-257 melanoma
SK-MEL-28 melanoma = test system: SK-MEL-28 melanoma
OVCAR-8 ovarian = test system: OVCAR-8 ovarian
OVCAR-4 ovarian = test system: OVCAR-4 ovarian
SK-MEL-2 melanoma = test system: SK-MEL-2 melanoma
HS 578T breast = test system: HS 578T breast
SF-295 CNS = test system: SF-295 CNS
NCI-H23 lung = test system: NCI-H23 lung
HCT-116 colon = test system: HCT-116 colon
MDA-MB-231 breast = test system: MDA-MB-231 breast
SF-268 CNS = test system: SF-268 CNS
SR leukemia = test system: SR leukemia
OVCAR-3 ovarian = test system: OVCAR-3 ovarian
MDA-MB-435 = test system: MDA-MB-435
KM12 colon = test system: KM12 colon
MOLT-4 leukemia = test system: MOLT-4 leukemia
A498 renal = test system: A498 renal
HT29 colon = test system: HT29 colon
786-0 renal = test system: 786-0 renal
CAKI-1 renal = test system: CAKI-1 renal
SW-620 colon = test system: SW-620 colon
SN12C renal = test system: SN12C renal
NCI-H460 lung = test system: NCI-H460 lung
OVCAR-5 ovarian = test system: OVCAR-5 ovarian
COLO 205 colon = test system: COLO 205 colon
SF-539 CNS = test system: SF-539 CNS
IGROV1 ovarian = test system: IGROV1 ovarian
RXF 393 renal = test system: RXF 393 renal
M14 melanoma = test system: M14 melanoma
NCI/ADR-RES ovarian = test system: NCI/ADR-RES ovarian
EKVX NSCLC = test system: EKVX NSCLC
DU-145 prostate = test system: DU-145 prostate
LOX IMVI melanoma = test system: LOX IMVI melanoma
HL-60(TB) leukemia = test system: HL-60(TB) leukemia
BT-549 breast = test system: BT-549 breast
SK-MEL-5 melanoma = test system: SK-MEL-5 melanoma
MDA-N = test system: MDA-N
T-47D breast = test system: T-47D breast
MALME-3M melanoma = test system: MALME-3M melanoma
HOP-92 NSCLC = test system: HOP-92 NSCLC
SNB-75 CNS = test system: SNB-75 CNS

NCCN1C(=O)c2cc(Cl)c(Cl)cc2C1(O)c1ccc(Cl)cc1 (stereo unspecified)
TGI (SK-OV-3 ovarian): 26.3 µM
TGI (PC-3 prostate): 19.3 µM
TGI (UO-31 renal): 17.2 µM
TGI (SNB-19 CNS): 7.73 µM
TGI (CCRF-CEM leukemia): 10.1 µM
TGI (U251 CNS): 3.17 µM
TGI (ACHN renal): 4.75 µM
TGI (HOP-62 NSCLC): 4.21 µM
TGI (TK-10 renal): 3.53 µM
TGI (UACC-62 melanoma): 3.25 µM
TGI (RPMI-8226 leukemia): 5.39 µM
TGI (MCF7 breast): 3.73 µM
TGI (HCT-15 colon): 5.33 µM
TGI (K-562 leukemia): 4.09 µM
TGI (A549 NSCLC): 4.76 µM
TGI (UACC-257 melanoma): 3.47 µM
TGI (SK-MEL-28 melanoma): 3.21 µM
TGI (OVCAR-8 ovarian): 3.92 µM
TGI (OVCAR-4 ovarian): 4.24 µM
TGI (SK-MEL-2 melanoma): 3.63 µM
TGI (HS 578T breast): 8.44 µM
TGI (SF-295 CNS): 3.9 µM
TGI (NCI-H23 lung): 6.78 µM
TGI (HCT-116 colon): 3.09 µM
TGI (MDA-MB-231 breast): 3.75 µM
TGI (SF-268 CNS): 6.65 µM
TGI (SR leukemia): 3.96 µM
TGI (OVCAR-3 ovarian): 4.74 µM
TGI (MDA-MB-435): 3.13 µM
TGI (KM12 colon): 4.17 µM
TGI (MOLT-4 leukemia): 5.28 µM
TGI (A498 renal): 10.2 µM
TGI (HT29 colon): 3.81 µM
TGI (786-0 renal): 2.96 µM
TGI (CAKI-1 renal): 7.02 µM
TGI (SW-620 colon): 3.7 µM
TGI (SN12C renal): 13.4 µM
TGI (NCI-H460 lung): 3.64 µM
TGI (OVCAR-5 ovarian): 12.2 µM
TGI (COLO 205 colon): 3.02 µM
TGI (SF-539 CNS): 3.1 µM
TGI (IGROV1 ovarian): 4.89 µM
TGI (RXF 393 renal): 3.06 µM
TGI (M14 melanoma): 3.23 µM
TGI (NCI/ADR-RES ovarian): 7.25 µM
TGI (EKVX NSCLC): 6.75 µM
TGI (DU-145 prostate): 6.81 µM
TGI (LOX IMVI melanoma): 3.28 µM
TGI (HL-60(TB) leukemia): 3.44 µM
TGI (BT-549 breast): 13.4 µM
TGI (SK-MEL-5 melanoma): 2.99 µM
TGI (MDA-N): 3.47 µM
TGI (T-47D breast): 4.55 µM
TGI (MALME-3M melanoma): 3.49 µM
TGI (HOP-92 NSCLC): 12.5 µM
TGI (SNB-75 CNS): 8.26 µM
